From the NIST ThermoML archive (doi:10.1021/acs.jced.7b00494)
Numbers after ± are expanded uncertainties.

Details: 99.6 kPa, Liquid; for kinematic viscosity: Capillary tube (Ostwald / Ubbelohde) method; for mass density: Vibrating tube method

CNC(C)=O [N-methylacetamide] gave a kinematic viscosity (308.15 K) of 3.79e-06 ± 4.6e-08 m2/s, a mass density (308.15 K) of 945.85 ± 1.9 kg/m3 and a kinematic viscosity (313.15 K) of 3.35e-06 ± 4.1e-08 m2/s. The mass density (313.15 K) was 941.63 ± 1.9 kg/m3, the kinematic viscosity (318.15 K) was 2.99e-06 ± 3.7e-08 m2/s and the mass density (318.15 K) was 937.44 ± 1.9 kg/m3. It also gave a kinematic viscosity (323.15 K) of 2.68e-06 ± 3.3e-08 m2/s, a mass density (323.15 K) of 933.24 ± 1.9 kg/m3 and a kinematic viscosity (328.15 K) of 2.42e-06 ± 3e-08 m2/s. For the same compound, the mass density (328.15 K) was 929.07 ± 1.9 kg/m3.
